Test results: patent EP4019017A1, “COMPOSITION COMPRISING MELATONIN, PIPERINE AND VITAMIN D, CONTROLLED-RELEASE FORMULATION AND USE THEREOF FOR THE TREATMENT OF SLEEP DISORDERS” (Uriach Consumer Healthcare, S.L., priority 2020, dated 2022)
Where two headings read alike, the source gives them in different places.

Legend:
[1] = system: Intestinal cells (Caco-2); assay: Intestinal cells - cell viability; format: cell-based; parameters: unit not given here
Source text: For this purpose, intestinal barrier model (transwell, patented model from Novara University, Italy) is used to determine the rate of passage and therefore to estimate a better pass-effect of melatonin in combination with piperine and vitamin D than melatonin alone. In this phase, vitality will also be assessed in the presence of the treatments alone and in combination with melatonin, in addition to melatonin alone. […] A time-dependent trend can be observed for all tested substances. In addition, substances other than melatonin have an efficacy that resolves within 2-4 hours of treatment.

[2] = cited from earlier work
[3] = system: Intestinal cells (Caco-2); assay: Intestinal absorption rate, intestinal barrier model (transwell), fluorescent tracer; format: in vitro ADME
Source text: For this purpose, intestinal barrier model (transwell, patented model from Novara University, Italy) is used to determine the rate of passage and therefore to estimate a better pass-effect of melatonin in combination with piperine and vitamin D than melatonin alone. In this phase, vitality will also be assessed in the presence of the treatments alone and in combination with melatonin, in addition to melatonin alone. […] 3.1.b. Intestinal absorption: to determine speed based on the fluorescent tracer, the percentage velocity calculated with respect to the control.

[4] = Time 1 h, Melatonin 1mM, Piperine 5µM, Vitamin D3 1nM, Vitamin B6 500µM

SMILES	Cell viability, Average [1, 4]	Cell viability, Average ([1]; Time 2 h)	Cell viability, Average ([1]; Time 3 h)	Cell viability, Average ([1]; Time 4 h)	Cell viability, Average ([1]; Time 5 h)	Cell viability, Average ([1]; Time 6 h)	solubility ([2]; in alcohol)	solubility ([2]; in water)	Speed (percentage velocity calculated with respect to the control) ([3]; Time 2 h) [%]	Speed (percentage velocity calculated with respect to the control) ([3]; Time 3 h) [%]	Speed (percentage velocity calculated with respect to the control) ([3]; Time 4 h) [%]	Speed (percentage velocity calculated with respect to the control) ([3]; Time 5 h) [%]	Speed (percentage velocity calculated with respect to the control) ([3]; Time 6 h) [%]	Speed (percentage velocity calculated with respect to the control) ([3]; time 1 h) [%]	Speed (percentage velocity calculated with respect to the control) ([3]; time point printed as 30) [%]
COc1ccc2[nH]cc(CCNC(C)=O)c2c1 [Melatonin, N-[2-(5-Methoxy-1H-indol-3-yl)ethyl]acetamide]	13.375	10.905	7.57	6.965	2.57	1.005									
O=C(/C=C/C=C/c1ccc2c(c1)OCO2)N1CCCCC1 [Piperine, (2E,4E)-5-(2H-1,3-Benzodioxol-5-yl)-1-(piperidin-1-yl)penta-2,4-dien-1-one]	6.37	30.25	21.625	14.125	12.32	6.74	soluble	insoluble							
Cc1ncc(CO)c(CO)c1O.Cl [Vitamin B6, Pyridoxine HCI]	11.985	5.215	5.965	9.105	3.565	4.8									
C=C1CC[C@H](O)C/C1=C/C=C1\CCC[C@]2(C)[C@@H]([C@H](C)CCCC(C)C)CC[C@@H]12 [Vitamin D3]	6.91	14.185	18.32	16.325	9.315	0.78			15.00	19.00	17.00	13.00	10.00	10.00	8.00
